Measurements as given in article PMC3878827, “Synthesis and biological characterisation of ^18F-SIG343 and ^18F-SIG353, novel and high selectivity σ2 radiotracers, for tumour imaging properties” (EJNMMI Research, 2013).
Where “and” joins values, the source holds several entries; their conditions need not be identical. Identical values can stand only once.

Key:
[1] = Metabolite studies (radio-TLC and radio-HPLC) in A375 tumour-bearing mice; type: in vivo; conditions: i.v., mean ± SD, n = 3
Experimental: The amount of intact ^18F-SIG343 and ^18F-SIG353 in the plasma, urine, tumour and brain cortex was quantified by thin layer chromatography (TLC) and radio-HPLC analysis. Mice were injected with 20 MBq of the radiotracer in 100 μL of saline. Mice were sacrificed 15, 60 and 120 min post injection of radiotracer. Whole organ samples of brain cortex and tumour samples (10 to 60 mg, minced) were added to unlabelled SIG343 or SIG353 (5 μL; 1 mg/mL), KF (5 μL; 1 mg/mL), MeCN (0.3 mL) and water (0.2 mL). Samples were exposed to an ultrasonic probe (Ultrasonic processor, Misonix Inc., Farmingdale, NY, USA) for 2 min before being centrifuged (5,000 rpm, 5 min). Plasma (50 μL) or urine (10 μL) samples were added to unlabelled SIG343 or SIG353, KF and 0.5 mL MeCN. Plasma samples were centrifuged (Heraeus Biofuge PrimoR, Thermo Fisher Scientific, Hudson, NH, USA; 5,000 rpm, 5 min), and the supernatant was removed and the radioactivity of the precipitated pellets was measured using a gamma counter to determine the extraction efficiency. If necessary, multiple extractions were performed to ensure maximum recovery of the radioactivity. An appropriate amount of the supernatant, based on the activity level (cpm), was collected (approximately 100 μL), diluted with water (up to 1.5 mL) for HPLC analysis or evaporated to dryness under vacuum for TLC analysis.
The TLC sample was reconstituted in methanol (25 to 50 μL) and mixed before being applied to the concentrating zone of the silica TLC plate. In a separate lane, the corresponding ^18F-labelled and ^19F-standard was also spotted. The TLC solvent systems of EtOAc/MeOH (70:30) were utilised for ^18F-SIG343 (rf 0.50) and ^18F-SIG353 (rf 0.55). The UV of the standard was identified using a UV lamp, while the movement and integration of the radioactive spots were visualised and measured using a phosphorimager (BAS 2500 Phosphorimager, Fujifilm, Tokyo, Japan) with Fujifilm Multigage 3.0 software. The intact radiotracer was identified as the radioactive spot containing the identical rf value to the corresponding ^19F-standard seen under the UV lamp. The integration of the active spot in relation to all the activity in the TLC lane gave the percentage of intact radiotracer.
Radio-HPLC analysis was performed following the method of Hilton et al.. A pre-column (Waters Oasis HLB, 25 μm, 20 × 3.9 mm) and a reversed phase HPLC column (Phenomenex Bondclone C18, 10 μm, 250 × 4.6 mm or Phenomenex Synergi Max-RP 80A C18, 4 μm, 250 × 4.6 mm) in series, with a switching valve between columns was utilised. The pre-column was washed with 1% acetonitrile in water for 3 min at 1.5 mL/min and then the solvent direction was switched to include the HPLC column. Both columns in series were then eluted over 10 min. The radioactivity peak corresponding to the authentic radiotracer was compared to the total activity registered in the radiochromatogram to give the fraction of unchanged radiotracer in the sample.

[2] = test system: A375 (human amelanotic melanoma) cells; experiment: Cell uptake inhibition studies in A375 cells with competing σ ligands; type: cell-based; conditions: 15 min
Experimental: A375 (human amelanotic melanoma) cells were purchased from American Type Culture Collection (Manassas, VA, USA) and cultured in RPMI-1640 medium (Sigma-Aldrich, St. Louis, MO, USA) supplemented with 10% foetal calf serum (Invitrogen, CA, USA) and 2 mM L-glutamine (Sigma). Cells were maintained in 175 cm^2 flasks in at 37°C in 5% CO2:95% atmosphere humidified incubator and grown to sub-confluent monolayers before being detached using trypsin for use in animal models.
Cells were prepared as described for uptake studies. Prior to the addition of the radiotracer, 400 μL of blocking drug (6.25 μmol/L in PBS) or PBS (for controls) was added to the wells. Freshly prepared radiotracer (0.37 MBq in 100 μL) was added, and the cells were incubated at 37°C for 15 min as the optimal time previously determined by the cell uptake studies. Uptake was terminated as described for uptake studies. The percentage of uptake in the treatment groups relative to the control group was determined.

Unchanged form, Cortex ([1]; 15 min post injection)	Unchanged form, Plasma ([1]; 15 min post injection)	Unchanged form, Tumour ([1]; 15 min post injection)	Unchanged form, Urine ([1]; 15 min post injection)	Unchanged form, Cortex ([1]; 60 min post injection)	Unchanged form, Plasma ([1]; 60 min post injection)	Unchanged form, Tumour ([1]; 60 min post injection)	Unchanged form, Urine ([1]; 60 min post injection)	Unchanged form, Plasma ([1]; 120 min post injection)	Unchanged form, Urine ([1]; 120 min post injection)	Unchanged form, Tumour ([1]; 120 min post injection)	Structure (SMILES)	Change of cell uptake of radiotracer versus control ([2]; competitor (+)-pentazocine 5 μM)	Change of cell uptake of radiotracer versus control ([2]; competitor haloperidol 5 μM)	Change of cell uptake of radiotracer versus control ([2]; competitor unlabelled SIG343 5 μM)	Change of cell uptake of radiotracer versus control ([2]; any of the competing σ ligands ((+)-pentazocine, haloperidol, unlabelled SIG353) 5 μM)
87 ± 3.2%	49 ± 7.5%	79 ± 4.6%	13% and 13 ± 1.2%	83 ± 0.8%	23 ± 3.8%	85 ± 3.1%	15 ± 4.3%	16 ± 2.8%	11 ± 5.4%	–	COc1cc2c(cc1OC)CN(CCCCN1C(=O)c3ccc([18F])cc3C1=O)CC2 [^18F-SIG343]	no significant blocking effect	-72%	-69%	–
85%	60 ± 3.0%	81 ± 4.5%	5% and 5 ± 1.3%	87%	27 ± 5.1%	85 ± 2.4%	4 ± 0.4%	17 ± 2.9%	5 ± 1.2%	65% and 65 ± 8.9%	COc1cc2c(cc1OC)CN(CCCCCN1C(=O)c3ccc([18F])cc3C1=O)CC2 [^18F-SIG353]	–	–	–	not significantly reduced
